From ChEMBL document CHEMBL1649188, “Posaconazole therapeutic drug monitoring: a reference laboratory experience” (Antimicrob Agents Chemother, 2009)

Legend:
Type in all cases: ADME, organism-based
Details in all cases: in vivo
Homo sapiens [1] = species on record: Homo sapiens; assay: Drug level in patient serum with acute graft-versus-host disease by HPLC analysis
Homo sapiens [2] = species on record: Homo sapiens; assay: Drug level in patient serum with infection by HPLC analysis
Homo sapiens [3] = species on record: Homo sapiens; assay: Drug level in patient serum with invasive aspergillosis by HPLC analysis
Homo sapiens [4] = species on record: Homo sapiens; assay: Drug level in patient serum with chronic graft-versus-host disease by HPLC analysis

SMILES: CC[C@@H]([C@H](C)O)n1ncn(-c2ccc(N3CCN(c4ccc(OC[C@@H]5CO[C@@](Cn6cncn6)(c6ccc(F)cc6F)C5)cc4)CC3)cc2)c1=O [POSACONAZOLE]
- Drug uptake (Homo sapiens [1]): 0.958 µg/mL
- Drug uptake (Homo sapiens [2]): 0.611 µg/mL
- Drug uptake (Homo sapiens [3]): 0.134 µg/mL
- Drug uptake (Homo sapiens [4]): 1.47 µg/mL
